This is an account of results in patent US20130338142A1, “IMIDAZOPYRAZINE SYK INHIBITORS” (Gilead Connecticut, Inc., priority 2012, published 2013).

Usually solubility stands for the dissolved amount per volume that the medium holds. Low readings indicate a poorly soluble substance, high ones a readily soluble substance. For orientation: IC50 means the concentration at which inhibition is half-maximal. Read a high IC50 as weaker potency. As usually defined, the melting point is the temperature, or range, at which the solid turns liquid.

One series in a line: Kinetic solubility study. The conditions noted are these: 37 °C, kinetic from dmso stock.
The target of the next series is Syk (Homo sapiens, UniProt P43405). Nature of the series: High throughput Syk assay (TR-FRET, KinEASE). The conditions noted are these: Syk TR-FRET assay of Example B2; 3 μM ATP, 0.5 nM Syk. It is filed as biochemical. As to the method: The following high throughput Syk assay was performed on the compounds of Table 1 as follows.
Syk activity was measured by detecting phosphorylated peptide substrate formation using antibody against phosphorylated peptide substrate. This is a time-resolved fluorescence resonance energy transfer (TR-FRET) immunoassay, based on the KinEASE Assay (Cisbio). […] Test compounds (in DMSO) were spotted into 384 well plates using a Labcyte® Echo 550 Liquid Handling System prior to addition of Syk enzyme and peptide substrate. Reaction solutions were delivered using a Multi-Flo (Bio-Tek Instruments). The enzyme and peptide solution was incubated with compound for 60 minutes at room temp before the reaction was initiated by the addition of ATP. […] The europium donor was excited using a 340-nm excitation filter with a 30-nm band pass. Energy transfer to the tracer was measured using a filter centered at 665 nm with a 10 nm bandpass. This signal was then referenced to the emission from europium peak, using a 615 nm, 10-nm bandpass filter. The “emission ratio” was calculated as the 665 nm signal divided by the 615 nm signal. Percentage of inhibition was calculated as below:
% Inhibition=100×(RatioSample−Ratio0% Inhibition)/(Ratio100% Inhibition−Ratio0% Inhibition)
In general terms: In TR-FRET formats the signal depends on donor and acceptor labels being close together.

The mark [1] stands for this setting: aqueous media, pH 2, aqueous buffer.
[2] abbreviates: aqueous media, pH 5.4, aqueous buffer.
Where [3] appears, read: aqueous media, pH 7.4, aqueous buffer.

≈ marks a conversion by molar mass, not a printed value.

Method for Kinetic solubility study: The compounds tested (as listed in Table 2 below) were dissolved in dimethyl sulfoxide (DMSO) at a 10 mM concentration. A 3 μL sample aliquot of the DMSO solution is then added to 297 μL of desired aqueous media (pH 2, pH 5.4, and pH 7.4). The sample is then incubated for 24 hrs at 37° C. with shaking. After 24 hrs the samples are centrifuged, an aliquot of the supernatant liquid is removed and analyzed by HPLC. The compound concentration in the sample is determined by reference to a sample of the compound with known standard concentration.

`COc1cc(Nc2nc(-c3ccc4c(c3)NCCO4)cn3ccnc23)ccc1N1CCN(C2COC2)CC1` [Compound 4, 6-(3,4-dihydro-2H-benzo[b][1,4]oxazin-6-yl)-N-(3-methoxy-4-(4-(oxetan-3-yl)piperazin-1-yl)phenyl)imidazo[1,2-a]pyrazin-8-amine]: the results for the solubility at 24 h in the series “Kinetic solubility study” (setting [1]), in the series “Kinetic solubility study” (setting [2]) and in “Kinetic solubility study” (setting [3]) were 94 µM (≈ 48.3 µg/mL), 94 µM (≈ 48.3 µg/mL) and 57 µM (≈ 29.3 µg/mL), respectively. In addition, inhibition at Syk was half-maximal at 4 nM (IC50).
With `COc1cc(Nc2nc(-c3ccc4cn[nH]c4c3)cn3ccnc23)ccc1N1CCOCC1` [Compound 90x, 6-(1H-indazol-6-yl)-N-(3-methoxy-4-morpholinophenyl)imidazo[1,2-a]pyrazin-8-amine, reference compound], the solubility at 24 h was 94 µM (≈ 41.5 µg/mL) in the series “Kinetic solubility study” (pH 2, aqueous buffer); 3 µM (≈ 1.32 µg/mL) in the series “Kinetic solubility study” (pH 5.4, aqueous buffer); 3 µM (≈ 1.32 µg/mL) in “Kinetic solubility study” (pH 7.4, aqueous buffer).
Regarding `COc1cc(Nc2nc(-c3cnc4c(c3)NCCO4)cn3ccnc23)ccc1N1CCOCC1` [Compound 1, 6-(2,3-dihydro-1H-pyrido[2,3-b][1,4]oxazin-7-yl)-N-(3-methoxy-4-morpholinophenyl)imidazo[1,2-a]pyrazin-8-amine], the figures for the solubility at 24 h in the series “Kinetic solubility study” (setting [1]), in the series “Kinetic solubility study” (setting [2]) and in the series “Kinetic solubility study” (setting [3]) were 98 µM (≈ 45 µg/mL), 95 µM (≈ 43.7 µg/mL) and 95 µM (≈ 43.7 µg/mL), respectively. This molecule also came in with a concentration for half-maximal inhibition (IC50) against Syk of 3 nM.
Regarding `c1cn2cc(-c3cnc4c(c3)NCCO4)nc(Nc3ccc(N4CCOCC4)cc3)c2n1` [Compound 28x, 6-(2,3-dihydro-1H-pyrido[2,3-b][1,4]oxazin-7-yl)-N-(4-morpholinophenyl)imidazo[1,2-a]pyrazin-8-amine, reference compound], the solubility at 24 h in the series “Kinetic solubility study” (setting [1]) came out at 90 µM (≈ 38.7 µg/mL); in the series “Kinetic solubility study” (setting [2]), 9 µM (≈ 3.87 µg/mL); in “Kinetic solubility study” (setting [3]), 9 µM (≈ 3.87 µg/mL).
For the molecule `COc1cc(Nc2nc(-c3ccc4c(c3)NCCO4)cn3ccnc23)ccc1N1CCOCC1` [Compound 14x, 6-(3,4-dihydro-2H-benzo[b][1,4]oxazin-6-yl)-N-(3-methoxy-4-moipholinophenyl)imidazo[1,2-a]pyrazin-8-amine, reference compound], the solubility at 24 h in “Kinetic solubility study” (setting [1]) was found to be 87 µM (≈ 39.9 µg/mL); in the series “Kinetic solubility study” (setting [2]), 10 µM (≈ 4.59 µg/mL); in “Kinetic solubility study” (setting [3]), 8 µM (≈ 3.67 µg/mL).
Turning to `c1cn2cc(-c3ccc4c(c3)NCCO4)nc(Nc3ccc(N4CCN(C5COC5)CC4)cc3)c2n1` [Compound 24, 6-(3,4-dihydro-2H-benzo[b][1,4]oxazin-6-yl)-N-(4-(4-(oxetan-3-yl)piperazin-1-yl)phenyl)imidazo[1,2-a]pyrazin-8-amine], the figures for the solubility at 24 h in the series “Kinetic solubility study” (setting [1]), in the series “Kinetic solubility study” (setting [2]) and in “Kinetic solubility study” (setting [3]) were 100 µM (≈ 48.4 µg/mL), 61 µM (≈ 29.5 µg/mL) and 33 µM (≈ 16 µg/mL), respectively.
`c1cn2cc(-c3cnc4c(c3)NCCO4)nc(Nc3ccc4c(c3)OC[C@H]3COCCN43)c2n1` [Compound 43, (R)-N-(6-(2,3-dihydro-1H-pyrido[2,3-b][1,4]oxazin-7-yl)imidazo[1,2-a]pyrazin-8-yl)-2,4,4a,5-tetrahydro-1H-benzo[b][1,4]oxazino[4,3-d][1,4]oxazin-8-amine]: on Syk, it took 9 nM to reach half-maximal inhibition (IC50).
For the molecule `COc1cc(Nc2nc(-c3ccc4c(c3)CNCCO4)cn3ccnc23)ccc1N1CCOCC1` [Compound 3], the solubility at 24 h in “Kinetic solubility study” (setting [1]), in “Kinetic solubility study” (setting [2]) and in the series “Kinetic solubility study” (setting [3]) was 100 µM (≈ 47.3 µg/mL) in each case. The molecule also yielded a half-inhibitory concentration (IC50) at Syk of 7 nM.
Regarding `CC(C)N1CCN(c2ccc(Nc3nc(-c4cnc5c(c4)NCCO5)cn4ccnc34)cc2)CC1` [Compound 62, 6-(2,3-dihydro-1H-pyrido[2,3-b][1,4]oxazin-7-yl)-N-(4-(4-isopropylpiperazin-1-yl)phenyl)imidazo[1,2-a]pyrazin-8-amine], the IC50 at Syk was found to be 8 nM.
On the same count and under the same terms, under `COc1cc(Nc2nc(-c3cnc4c(c3)NCCO4)cn3ccnc23)ccc1N1CCC2(CC1)OCCO2` [Compound 103, 6-(2,3-dihydro-1H-pyrido[2,3-b][1,4]oxazin-7-yl)-N-(3-methoxy-4-(1,4-dioxa-8-azaspiro[4.5]decan-8-yl)phenyl)imidazo[1,2-a]pyrazin-8-amine] stands 3 nM.
In turn, `COc1cc(Nc2nc(-c3cnc4c(c3)NCCO4)cn3ccnc23)ccc1N1CCOCC1` [Example 5a, 6-(2,3-dihydro-1H-pyrido[2,3-b][1,4]oxazin-7-yl)-N-(3-methoxy-4-morpholinophenyl)imidazo[1,2-a]pyrazin-8-amine] came in with a melting point of 233 to 234 °C.
As for `c1cn2cc(-c3ccc4c(c3)NCCO4)nc(Nc3ccc(N4CCN(C5COC5)CC4)cc3)c2n1` [Example 24, 6-(3,4-dihydro-2H-benzo[b][1,4]oxazin-6-yl)-N-(4-(4-(oxetan-3-yl)piperazin-1-yl)phenyl)imidazo[1,2-a]pyrazin-8-amine], the IC50 on Syk amounted to 11 nM.
Still for that read-out and setting: under `COc1cc(Nc2nc(-c3cnc4c(c3)NCCO4)cn3ccnc23)ccc1N1CCN(C(=O)[C@H](C)O)CC1` [Compound 85, (S)-1-(4-(4-((6-(2,3-dihydro-1H-pyrido[2,3-b][1,4]oxazin-7-yl)imidazo[1,2-a]pyrazin-8-yl)amino)-2-methoxyphenyl)piperazin-1-yl)-2-hydroxypropan-1-one] stands 3 nM; under `COc1cc(Nc2nc(-c3ccc4c(c3)NCCO4)cn3ccnc23)ccc1N1CC[C@@H](N)C1` [Compound 9, (R)-N-(4-(3-aminopyrrolidin-1-yl)-3-methoxyphenyl)-6-(3,4-dihydro-2H-benzo[b][1,4]oxazin-6-yl)imidazo[1,2-a]pyrazin-8-amine], 6 nM; under `c1cn2cc(-c3cnc4c(c3)NCCO4)nc(Nc3cnn(C4CCOCC4)c3)c2n1` [Compound 44, 6-(2,3-dihydro-1H-pyrido[2,3-b][1,4]oxazin-7-yl)-N-(1-(tetrahydro-2H-pyran-4-yl)-1H-pyrazol-4-yl)imidazo[1,2-a]pyrazin-8-amine], 5 nM.
Still for that read-out and setting: under `COc1cc(Nc2nc(-c3cnc4c(c3)NCCO4)cn3ccnc23)ccc1N1CCN(CC2(C)COC2)CC1` [Compound 28, 6-(2,3-dihydro-1H-pyrido[2,3-b][1,4]oxazin-7-yl)-N-(3-methoxy-4-(4-((3-methyloxetan-3-yl)methyl)piperazin-1-yl)phenyl)imidazo[1,2-a]pyrazin-8-amine] stands 4 nM; under `CC(C)c1ncc(Nc2nc(-c3cnc4c(c3)NCCO4)cn3ccnc23)s1` [Compound 54, N-(6-(2,3-dihydro-1H-pyrido[2,3-b][1,4]oxazin-7-yl)imidazo[1,2-a]pyrazin-8-yl)-2-isopropylthiazol-5-amine], 4 nM.
